Source: PubChem BioAssay AID1963440 (Molecular Pharmacology Branch, DTP, NCI, 2024)
Where “and” joins values, the source holds several entries; their conditions need not be identical. Equal entries are not always repeated.

Tested on: NCI-H1417 complex spheroids, growth % test/control
Test: Anticancer human tumor NCI-H1417 cell line growth inhibition [Asc];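 note: spheroids exposed to compounds for 7 days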;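 for viability, T/C: 100% = DMSO vehicle control wells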
Conditions: for viability, T/C: stronger effect = lower value
In short: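 Spheroid model: tumor line + HUVEC + hMSC. Single agents and combinations; top conc. at/near clinical Cmax (10 microM if undetermined), half-log dilutions. DMSO stocks at 800-fold test concentration.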

[1] = curve of first compound, second compound 0.01 µM
[2] = curve of first compound, second compound 0.0316 µM
[3] = curve of first compound, second compound 0.1 µM
[4] = curve of first compound, second compound 0.316 µM
[5] = curve of first compound, second compound 1 µM
[6] = second compound 0.01 µM, first compound 0.0316 µM
[7] = second compound 0.01 µM, first compound 0.1 µM
[8] = second compound 0.0316 µM, first compound 0.0316 µM
[9] = second compound 0.0316 µM, first compound 0.1 µM
[10] = second compound 0.1 µM, first compound 0.0316 µM
[11] = second compound 0.1 µM, first compound 0.1 µM
[12] = second compound 0.316 µM, first compound 0.0316 µM
[13] = second compound 0.316 µM, first compound 0.1 µM
[14] = second compound 1 µM, first compound 0.0316 µM
[15] = second compound 1 µM, first compound 0.1 µM

`C=C(F)C(=O)N1CCN(c2nc(OCC3CCCN3C)nc3c2CCN(c2cccc4cccc(Cl)c24)C3)CC1CC#N` (configuration not stated) + CCN1C(C(=O)NC23CCC(C(=O)O)(CC2)CC3)C(c2cccc(Cl)c2F)C2(C(=O)Nc3cc(Cl)ccc32)C12CCCCC2 showed an IC50 (curve of first compound, second compound 0.03 µM) of 3.58 µM, an IC50 (curve of first compound, second compound 0.0949 µM) of 3.25 µM and an IC50 (curve of first compound, second compound 0.3 µM) of 3.33 µM. For the same compound, the IC50 (curve of first compound, second compound 0.949 µM) was 2.77 µM, the IC50 (curve of first compound, second compound 3 µM) was 2.25 µM and the viability, T/C (second compound 0.03 µM, first compound 0.0316 µM) was 107%. The viability, T/C (second compound 0.03 µM, first compound 0.1 µM) was 111%, the viability, T/C (second compound 0.03 µM, first compound 0.316 µM) was 102% and the viability, T/C (second compound 0.03 µM, first compound 1 µM) was 95.4%. The viability, T/C (second compound 0.03 µM, first compound 3.16 µM) was 55.8%, the viability, T/C (second compound 0.03 µM, first compound 10 µM) was 0.19% and the viability, T/C (second compound 0.0949 µM, first compound 0.0316 µM) was 97.9%. The viability, T/C (second compound 0.0949 µM, first compound 0.1 µM) was 93.6%, the viability, T/C (second compound 0.0949 µM, first compound 0.316 µM) was 100% and the viability, T/C (second compound 0.0949 µM, first compound 1 µM) was 91%. The viability, T/C (second compound 0.0949 µM, first compound 3.16 µM) was 51.3%, the viability, T/C (second compound 0.0949 µM, first compound 10 µM) was 0.19% and the viability, T/C (second compound 0.3 µM, first compound 0.0316 µM) was 103%. The viability, T/C (second compound 0.3 µM, first compound 0.1 µM) was 98.5%, the viability, T/C (second compound 0.3 µM, first compound 0.316 µM) was 97.4% and the viability, T/C (second compound 0.3 µM, first compound 1 µM) was 87%. It also gave a viability, T/C (second compound 0.3 µM, first compound 3.16 µM) of 52.3%, a viability, T/C (second compound 0.3 µM, first compound 10 µM) of 0.17% and a viability, T/C (second compound 0.949 µM, first compound 0.0316 µM) of 100%. The viability, T/C (second compound 0.949 µM, first compound 0.1 µM) was 102%, the viability, T/C (second compound 0.949 µM, first compound 0.316 µM) was 85.5% and the viability, T/C (second compound 0.949 µM, first compound 1 µM) was 82.4%. It also gave a viability, T/C (second compound 0.949 µM, first compound 3.16 µM) of 44.9%, a viability, T/C (second compound 0.949 µM, first compound 10 µM) of 0.19% and a viability, T/C (second compound 3 µM, first compound 0.0316 µM) of 93.3%. The viability, T/C (second compound 3 µM, first compound 0.1 µM) was 89.9%, the viability, T/C (second compound 3 µM, first compound 0.316 µM) was 86.1% and the viability, T/C (second compound 3 µM, first compound 1 µM) was 79.1%. It also gave a viability, T/C (second compound 3 µM, first compound 3.16 µM) of 37.8% and a viability, T/C (second compound 3 µM, first compound 10 µM) of 0.4%.
With `C#Cc1c(F)ccc2cc(O)cc(-c3ncc4c(N5CC6CCC(C5)N6)nc(OCC56CCCN5CC(F)C6)nc4c3F)c12` (configuration not stated) the viability, T/C (compound 0.0316 µM) was 93% and 102% and 110%, the viability, T/C (compound 0.1 µM) was 89.5% and 97.4% and 102% and the viability, T/C (compound 0.316 µM) was 94.3% (2×) and 101%. For the same compound, the viability, T/C (compound 1 µM) was 106% and 98.8% and 97.6%, the viability, T/C (compound 3.16 µM) was 96.5% and 100% and 101% and the viability, T/C (compound 10 µM) was 72.5% and 96.5% and 83%. The IC50 (curve of compound) was over 10 µM.
`C=CC(=O)N1CCN(c2nc(=O)n(-c3c(C)ccnc3C(C)C)c3nc(-c4c(O)cccc4F)c(F)cc23)C(C)C1` (configuration not stated) + CNC(C)C(=O)NC1CN(S(=O)(=O)c2cccc(S(=O)(=O)N3CCC4CCC(C(=O)NC(c5ccccc5)c5ccccc5)N4C(=O)C(NC(=O)C(C)NC)C3)c2)CCC2CCC(C(=O)NC(c3ccccc3)c3ccccc3)N2C1=O was tested, and the IC50 [1] was over 10 µM, the IC50 [2] was over 10 µM and the IC50 [3] was over 10 µM. It also gave an IC50 [4] of over 10 µM, an IC50 [5] of over 10 µM and a viability, T/C [6] of 94%. The viability, T/C [7] was 90%, the viability, T/C (second compound 0.01 µM, first compound 0.316 µM) was 97.6% and the viability, T/C (second compound 0.01 µM, first compound 1 µM) was 96.2%. The viability, T/C (second compound 0.01 µM, first compound 3.16 µM) was 102%, the viability, T/C (second compound 0.01 µM, first compound 10 µM) was 103% and the viability, T/C [8] was 88.1%. The viability, T/C [9] was 99.8%, the viability, T/C (second compound 0.0316 µM, first compound 0.316 µM) was 89.9% and the viability, T/C (second compound 0.0316 µM, first compound 1 µM) was 94.4%. For the same compound, the viability, T/C (second compound 0.0316 µM, first compound 3.16 µM) was 97.6%, the viability, T/C (second compound 0.0316 µM, first compound 10 µM) was 87.8% and the viability, T/C [10] was 99.3%. It also gave a viability, T/C [11] of 87.5%, a viability, T/C (second compound 0.1 µM, first compound 0.316 µM) of 96.7% and a viability, T/C (second compound 0.1 µM, first compound 1 µM) of 96.9%. For the same compound, the viability, T/C (second compound 0.1 µM, first compound 3.16 µM) was 92%, the viability, T/C (second compound 0.1 µM, first compound 10 µM) was 88.2% and the viability, T/C [12] was 84.6%. It also gave a viability, T/C [13] of 94.3%, a viability, T/C (second compound 0.316 µM, first compound 0.316 µM) of 94.6% and a viability, T/C (second compound 0.316 µM, first compound 1 µM) of 92.5%. For the same compound, the viability, T/C (second compound 0.316 µM, first compound 3.16 µM) was 93.8%, the viability, T/C (second compound 0.316 µM, first compound 10 µM) was 86.2% and the viability, T/C [14] was 90.9%. The viability, T/C [15] was 101%, the viability, T/C (second compound 1 µM, first compound 0.316 µM) was 89.4% and the viability, T/C (second compound 1 µM, first compound 1 µM) was 90.2%. It also gave a viability, T/C (second compound 1 µM, first compound 3.16 µM) of 104% and a viability, T/C (second compound 1 µM, first compound 10 µM) of 93.3%.
For `Cn1ncnc1[C@H]1c2n[nH]c(=O)c3cc(F)cc(c23)N[C@@H]1c1ccc(F)cc1` + CNC(C)C(=O)NC1CN(S(=O)(=O)c2cccc(S(=O)(=O)N3CCC4CCC(C(=O)NC(c5ccccc5)c5ccccc5)N4C(=O)C(NC(=O)C(C)NC)C3)c2)CCC2CCC(C(=O)NC(c3ccccc3)c3ccccc3)N2C1=O, the IC50 [1] was over 0.1 µM, the IC50 [2] was over 0.1 µM and the IC50 [3] was over 0.1 µM. It also gave an IC50 [4] of over 0.1 µM, an IC50 [5] of over 0.1 µM and a viability, T/C (second compound 0.01 µM, first compound 0.000316 µM) of 110%. The viability, T/C (second compound 0.01 µM, first compound 0.001 µM) was 115%, the viability, T/C (second compound 0.01 µM, first compound 0.00316 µM) was 96.8% and the viability, T/C (second compound 0.01 µM, first compound 0.01 µM) was 81.1%. For the same compound, the viability, T/C [6] was 69.4%, the viability, T/C [7] was 85.3% and the viability, T/C (second compound 0.0316 µM, first compound 0.000316 µM) was 104%. For the same compound, the viability, T/C (second compound 0.0316 µM, first compound 0.001 µM) was 98.8%, the viability, T/C (second compound 0.0316 µM, first compound 0.00316 µM) was 94% and the viability, T/C (second compound 0.0316 µM, first compound 0.01 µM) was 87.4%. For the same compound, the viability, T/C [8] was 69%, the viability, T/C [9] was 80.2% and the viability, T/C (second compound 0.1 µM, first compound 0.000316 µM) was 95.8%. It also gave a viability, T/C (second compound 0.1 µM, first compound 0.001 µM) of 93%, a viability, T/C (second compound 0.1 µM, first compound 0.00316 µM) of 90.9% and a viability, T/C (second compound 0.1 µM, first compound 0.01 µM) of 78.3%. The viability, T/C [10] was 66.9%, the viability, T/C [11] was 74% and the viability, T/C (second compound 0.316 µM, first compound 0.000316 µM) was 99.6%. It also gave a viability, T/C (second compound 0.316 µM, first compound 0.001 µM) of 110%, a viability, T/C (second compound 0.316 µM, first compound 0.00316 µM) of 102% and a viability, T/C (second compound 0.316 µM, first compound 0.01 µM) of 78.5%. The viability, T/C [12] was 64.3%, the viability, T/C [13] was 70.1% and the viability, T/C (second compound 1 µM, first compound 0.000316 µM) was 98%. The viability, T/C (second compound 1 µM, first compound 0.001 µM) was 112%, the viability, T/C (second compound 1 µM, first compound 0.00316 µM) was 95.4% and the viability, T/C (second compound 1 µM, first compound 0.01 µM) was 81.3%. It also gave a viability, T/C [14] of 80% and a viability, T/C [15] of 84.4%.
